{
  "source": "patent US4127541A",
  "about": "“Novel decapeptides, intermediates therefor, and compositions and methods employing said decapeptides” (priority 1977, dated 1978)",
  "origin": "cited, not measured here",
  "key": {"[1]": {"system": "brain opiate receptor sites"}, "[2]": {"conditions": "injected directly into the brain of the rat"}},
  "data": [
    {"substance": "H-Tyr-Gly-Gly-Phe-Met-OH [methionine enkephalin]", "values": [
      {"measurement": "binding to partially purified brain opiate receptor sites", "setting": "[1]", "result": "binds stereo-specifically"},
      {"measurement": "analgesic activity", "setting": "[2]", "result": "weak analgesic agent of short duration"}
    ]}
  ]
}
